{"source": "patent US6140335A", "about": "“Use of mizolastine for treating inflammatory diseases associated with 5-lipoxygenase” (Sanofi-Synthelabo, priority 1997, dated 2000)", "key": {"[1]": {"test_system": "rat rectocolitis induced by trinitrobenzenesulphonic acid (TNBS)", "assay": "In vivo activity in a model of inflammation of experimental colitis in rats (TNBS)", "conditions": "3 mg/kg orally one hour before and one day after TNBS, after 3 days, significant", "procedure": "Mizolastine was studied in a model of rat rectocolitis induced by trinitrobenzenesulphonic acid (TNBS), according to the method described by Morris et al. (Gastroenterology, 96, 795-803, 1989).\nThe mizolastine is given orally (3 mg/kg) one hour before and one day after the instillation of TNBS (40 mg/kg in 50% ethanol) into the distal part of the colon. After 3 days, measurement of the macroscopic index of the damage, of the oedema/hypertrophy (weight of tissues) and of the myeloperoxidase activity, as a measure of the infiltration of the neutrophils, is carried out. Mizolastine imparts a significant reduction in the damage, in the oedema/hypertrophy (weight of tissues) and in the myeloperoxidase activity of 67%, 57% and 66% respectively at 3 mg/kg."}, "[2]": {"target": "T1, 5-LO isolated from commercial HL60 cells (Homo sapiens, UniProt P09917)", "T1 construct": "5-LO isolated from commercial HL60 cells; endogenous in cells; host or cells: HL60", "T1 sequence (P09917 1-674)": "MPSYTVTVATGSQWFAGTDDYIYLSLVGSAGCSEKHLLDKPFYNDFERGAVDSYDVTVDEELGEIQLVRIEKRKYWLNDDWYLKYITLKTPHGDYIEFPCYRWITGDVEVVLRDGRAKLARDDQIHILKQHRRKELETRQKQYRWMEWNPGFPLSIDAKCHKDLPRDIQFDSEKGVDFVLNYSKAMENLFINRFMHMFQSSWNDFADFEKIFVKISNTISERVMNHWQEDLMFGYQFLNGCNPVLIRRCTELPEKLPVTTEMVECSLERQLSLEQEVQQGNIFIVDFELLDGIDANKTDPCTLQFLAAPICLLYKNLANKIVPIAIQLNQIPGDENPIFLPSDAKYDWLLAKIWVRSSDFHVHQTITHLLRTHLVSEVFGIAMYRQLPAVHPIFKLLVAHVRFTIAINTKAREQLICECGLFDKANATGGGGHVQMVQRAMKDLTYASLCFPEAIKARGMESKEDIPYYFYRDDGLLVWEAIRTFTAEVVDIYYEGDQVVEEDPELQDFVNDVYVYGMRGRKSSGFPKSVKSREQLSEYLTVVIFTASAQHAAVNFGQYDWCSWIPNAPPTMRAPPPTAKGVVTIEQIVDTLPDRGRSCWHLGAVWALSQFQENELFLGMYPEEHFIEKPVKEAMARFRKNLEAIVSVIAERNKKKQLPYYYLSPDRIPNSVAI", "assay": "Inhibition of 5-LO in Man (HL60 5-LO)", "format": "biochemical", "conditions": "5-LO from HL60 cells; arachidonic acid 0.4 μM; 10 min at room temperature; 5-HETE by RIA; read-out: inhibitory concentration (IC50)", "procedure": "Mizolastine was tested on 5-LO isolated from commercial HL60 cells. The mizolastine is incubated for 10 minutes at room temperature in the presence of arachidonic acid (0.4 μM) and 5-LO. The experiment is carried out simultaneously in the presence of nordihydrogualaretic acid as reference product. The amount of 5-HETE formed is determined by RIA (Coffrey et al., J. Biol. Chem., 267-270, 1992)."}, "[3]": {"test_system": "inflammatory oedema of rat limbs induced by the injection of AA", "assay": "In vivo activity in a model of inflammation of rat limbs (oedema by injection of AA)", "conditions": "0.3 mg/kg orally 2 hours before AA injection; after 4 hours; plethysmography", "procedure": "a) inflammation by injection of AA\nInflammatory oedema of rat limbs induced by the injection of AA is produced and evaluated according to the method of Di Martino et al. (Agents and actions, 21, 303-305, 1987) except that the AA concentration used is 0.3% (v/v).\nThe mizolastine is given orally 2 hours before the injection of AA. An AA solution, prepared at the time of use in a buffer solution (0.1 ml; 0.2 M carbonate; pH=11.2), is injected into the subplantar part of a rat's right hind limb.\nThe volume of the inflammatory reaction is measured by plethysmography after 1, 2, 3 and 4 hours."}, "[4]": {"target": "T2, 5-LO obtained from a preparation of rat leukaemic basophil cells (RBL-1) (Rattus norvegicus, UniProt P12527)", "T2 construct": "5-LO obtained from a preparation of rat leukaemic basophil cells (RBL-1); endogenous in cells; host or cells: RBL-1 (rat leukaemic basophil cells)", "T2 sequence (P12527 1-673)": "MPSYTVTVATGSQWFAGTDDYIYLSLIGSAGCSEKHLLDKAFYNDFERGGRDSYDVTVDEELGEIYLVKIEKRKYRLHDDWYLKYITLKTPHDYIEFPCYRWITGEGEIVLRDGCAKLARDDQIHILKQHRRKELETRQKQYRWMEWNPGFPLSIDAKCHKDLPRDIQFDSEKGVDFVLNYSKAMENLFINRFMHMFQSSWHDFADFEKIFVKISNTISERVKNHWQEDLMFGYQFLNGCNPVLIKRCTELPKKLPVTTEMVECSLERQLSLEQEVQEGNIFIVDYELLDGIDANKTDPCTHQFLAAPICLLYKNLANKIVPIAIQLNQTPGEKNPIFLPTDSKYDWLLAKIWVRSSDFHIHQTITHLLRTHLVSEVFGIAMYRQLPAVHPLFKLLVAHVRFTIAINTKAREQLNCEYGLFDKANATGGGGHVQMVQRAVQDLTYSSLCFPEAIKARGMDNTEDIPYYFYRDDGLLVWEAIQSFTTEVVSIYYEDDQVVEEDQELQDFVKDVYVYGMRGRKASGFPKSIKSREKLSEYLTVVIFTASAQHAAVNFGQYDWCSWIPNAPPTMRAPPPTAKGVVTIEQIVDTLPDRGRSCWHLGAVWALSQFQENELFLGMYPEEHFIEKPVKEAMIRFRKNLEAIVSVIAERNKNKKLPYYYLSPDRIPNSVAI", "assay": "Inhibition of 5-LO in Rats (RBL-1 preparation)", "format": "biochemical", "conditions": "rat 5-LO (RBL-1); linoleic acid; 5 min preincubation, 8 min at room temperature; absorption at 234 nm; read-out: inhibitory concentration (IC50)", "procedure": "The tests were carried out according to the procedure described by R. W. Egan and P. H. Gale in J. Biol. Chem., 260, 1154-1159, 1985, with 5-LO obtained from a preparation of rat leukaemic basophil cells (RBL-1). Mizolastine is incubated with the enzyme for 5 minutes at room temperature and the reaction is initiated by addition of linoleic acid. After incubating for 8 minutes at room temperature, the reaction is stopped by addition of sodium hydroxide and the absorption is read at 234 nm in order to determine the level of 5-HETE."}}}
{"compound": "CN(c1nccc(O)n1)C1CCN(c2nc3ccccc3n2Cc2ccc(F)cc2)CC1", "note": "[mizolastine, 2-[[1-[1-[(4-fluorophenyl)methyl]-1H-benzimidazol-2-yl]-4-piperidyl]methylamino]-4-pyrimidinol]", "values": [{"measurement": "reduction in the myeloperoxidase activity", "setting": "[1]; infiltration of neutrophils", "value": 66, "unit": "%"}, {"measurement": "reduction in the damage (macroscopic index)", "setting": "[1]", "value": 67, "unit": "%"}, {"measurement": "reduction in the oedema/hypertrophy (weight of tissues)", "setting": "[1]", "value": 57, "unit": "%"}, {"measurement": "IC50", "setting": "[2]", "value": 16, "unit": "µM"}, {"measurement": "inhibition, relative to the control, of the inflammation induced", "setting": "[3]", "value": 55, "unit": "%"}, {"measurement": "IC50", "setting": "[4]", "value": 4.6, "unit": "µM"}]}
